In US8946426B2, “Substituted bicyclic heterocyclic compounds as gamma secretase modulators” (Janssen Pharmaceuticals, Inc., priority 2009, dated 2015) one finds IC50 data, which are given here for 38 molecules.

A value given as a limit tells only on which side of the number the result lay.

For one test, the system named is Aβ42. Nature of the test: Method 1: Aβ42 sandwich ELISA in supernatant of SKNBE2 cells carrying APP 695-wild type (Tables 7a, 7b). It counts as cell-based. The method, then: (§1) Screening was carried out using SKNBE2 cells carrying the APP 695-wild type, grown in Dulbecco's Modified Eagle's Medium/Nutrient mixture F-12 (DMEM/NUT-mix F-12) (HAM) provided by Gibco (cat no. 31330-38) containing 5% Serum/Fe supplemented with 1% non-essential amino acids. Cells were grown to near confluency.
(§2) The screening was performed using the assay as described in Citron et al (1997) Nature Medicine 3: 67. Briefly, cells were plated in a 96-well plate at about 10^5 cells/ml one day prior to addition of compounds. Compounds were added to the cells in Ultraculture (Lonza, BE12-725F) supplemented with 1% glutamine (Invitrogen, 25030-024) for 18 Hours. The media were assayed by two sandwich ELISAs, for Aβ42 and Aβtotal. Toxicity of the compounds was assayed by WST-1 cell proliferation reagent (Roche, 1 644 807) according to the manufacturer's protocol.
To quantify the amount of Aβ42 in the cell supernatant, commercially available Enzyme-Linked-Immunosorbent-Assay (ELISA) kits were used (Innotest® β-Amyloid(1-42), Innogenetics N.V., Ghent, Belgium). The Aβ42 ELISA was performed essentially according to the manufacturer's protocol. Briefly, the standards (dilutions of synthetic Aβ1-42) were prepared in polypropylene Eppendorf with final concentrations of 8000 down to 3.9 pg/ml (½ dilution step). Samples, standards and blanks (100 μl) were added to the anti-Aβ42-coated plate supplied with the kit (the capture antibody selectively recognizes the C-terminal end of the antigen). The plate was allowed to incubate 3 H at 25° C. in order to allow formation of the antibody-amyloid complex. Following this incubation and subsequent wash steps a selective anti-Aβ-antibody conjugate (biotinylated 3D6) was added and incubated for a minimum of 1 Hour in order to allow formation of the antibody-Amyloid-antibody-complex. After incubation and appropriate wash steps, a Streptavidine-Peroxidase-Conjugate was added, followed 30 minutes later by an addition of 3,3′,5,5′-tetramethylbenzidine (TMB)/peroxide mixture, resulting in the conversion of the substrate into a coloured product. This reaction was stopped by the addition of sulfuric acid (0.9 N) and the colour intensity was measured by means of photometry with an ELISA-reader with a 450 nm filter.
(§3) To obtain the values reported in Table 7a, the sigmoidal dose response curves were analysed by computerised curve-fitting, with percent of inhibition plotted against compound concentration. A 4-parameter equation (model 205) in XLfit was used to determine the IC50. The top and the bottom of the curve were fixed to 100 and 0, respectively, and the hill slope was fixed to 1. The IC50 represents the concentration of a compound that is required for inhibiting a biological effect by 50% (Here, it is the concentration where Aβ peptide level is reduced by 50%).
(§4) To obtain the values reported in Table 7b, the data were calculated as percentage of the maximum amount of amyloid Beta 42 measured in the absence of the test compound. The sigmoidal dose response curves were analyzed using non-linear regression analysis with percentage of the control plotted against the log concentration of the compound. A 4-parameter equation was used to determine the IC50. The values reported in Table 7b are averaged IC50 values.

The test system of the next test is Aβtotal. Nature of the test: Method 1: Aβtotal sandwich ELISA in supernatant of SKNBE2 cells carrying APP 695-wild type (Tables 7a, 7b). It is filed as cell-based. The method, then: as §1, §2
To quantify the amount of Aβtotal in the cell supernatant, samples and standards were added to a 6E10-coated plate. The plate was allowed to incubate overnight at 4° C. in order to allow formation of the antibody-amyloid complex. Following this incubation and subsequent wash steps a selective anti-Aβ-antibody conjugate (biotinylated 4G8) was added and incubated for a minimum of 1 Hour in order to allow formation of the antibody-Amyloid-antibody-complex. After incubation and appropriate wash steps, a Streptavidine-Peroxidase-Conjugate was added, followed 30 minutes later by an addition of Quanta Blu fluorogenic peroxidase substrate according to the manufacturer's instructions (Pierce Corp., Rockford, Ill.).
as §3, §4

Where [1] appears, read: Homo sapiens, SKNBE2, Table 7b, averaged IC50, non-linear regression of percentage of control vs log concentration, 4-parameter equation.
Where [2] appears, read: Homo sapiens, Table 7a, SKNBE2 cells, compounds 18 h, XLfit 4-parameter fit of percent inhibition, top/bottom fixed to 100/0, hill slope 1.
Where [3] appears, read: Table 7b, averaged IC50, non-linear regression of percentage of control vs log concentration, 4-parameter equation.
The mark [4] stands for this setting: Table 7a, SKNBE2 cells, compounds 18 h, XLfit 4-parameter fit of percent inhibition, top/bottom fixed to 100/0, hill slope 1.

As usually defined, the IC50 is the concentration that inhibits the measured activity by half. Lower therefore signals greater potency. Regarding `COc1cccc(-c2nc3c(Nc4ccc(-c5cn(C)nc5C)c(OC)c4)cccn3c2C)c1` [Compound 6], the IC50 in the test on Aβ42 (setting [1]) is 102 nM; with Aβ42 (setting [2]), 77 nM; with Aβtotal (setting [1]) it was greater than 3000 nM; with Aβtotal (setting [2]) it was greater than 3000 nM.
Turning to `COc1cc(Nc2cc(C3CC3)nc3c2nc(-c2ccc(F)cc2)n3C)ccc1-c1cnc(C)o1` [Compound 192], the results for the IC50 in the test with Aβ42 (setting [3]) and in the test on Aβtotal (setting [3]) were 13 nM and greater than 3000 nM, respectively.
The corresponding values for `COc1cc(-c2nc3c(Nc4ccc(-c5cnc(C)o5)c(OC)c4)cccc3n2C)ccc1Cl` [Compound 62] are 9 nM and greater than 3000 nM.
With `COc1cc(Nc2cccc3c2nc(-c2ccc(F)cc2)n3C)ccc1-c1ccnn1C` [Compound 9], the IC50 is 240 nM with Aβ42 (setting [1]), 399 nM with Aβ42 (setting [2]), greater than 3000 nM with Aβtotal (setting [1]) and greater than 3000 nM with Aβtotal (setting [2]).
As to `COc1cc(Nc2cccn3c(C)c(-c4ccccc4)nc23)ccc1-c1oc(C)nc1C` [Compound 8], the IC50 in the test on Aβ42 (setting [1]) is 282 nM; with Aβ42 (setting [2]), 275 nM; in the test on Aβtotal (setting [1]) it was greater than 5000 nM; in the test with Aβtotal (setting [2]) it was greater than 5000 nM.
In the case of `COc1cc(Nc2nc(C)cc3c2nc(C2CCOCC2)n3C)ccc1-c1cnc(C)o1` [Compound 92], the figures for the IC50 in the test on Aβ42 (setting [3]) and in the test on Aβtotal (setting [3]) were 2570 nM and greater than 3000 nM, respectively.
Turning to `Cc1ncc(-c2ccc(Nc3cccc4c3nc(-c3ccc(F)cc3)n4C)cn2)s1` [Compound 76], the IC50 with Aβ42 (setting [3]) is 182 nM; in the test with Aβtotal (setting [3]) it was greater than 3000 nM.
As for `Cc1ccc(-c2cn3cccc(Nc4ccc(-c5cnc(C)o5)cc4)c3n2)c(F)c1` [Compound 47], the IC50 with Aβ42 (setting [4]) was 486 nM; in the test on Aβ42 (setting [3]), 447 nM; with Aβtotal (setting [4]), greater than 3000 nM; in the test with Aβtotal (setting [3]) it was greater than 3000 nM.
In the case of `Cc1ncc(-c2ccc(Nc3cc(F)cc4c3nc(N3CCCC3)n4C)cc2)o1` [Compound 90], the IC50 was 1100 nM in the test with Aβ42 (setting [3]) and greater than 3000 nM with Aβtotal (setting [3]).
Turning to `C=C(C)c1c(-c2ccc(F)cc2)nc2c(Nc3ccc(-c4cnc(C)o4)cc3)cccn12` [Compound 177], the IC50 in the test with Aβ42 (setting [1]) was 105 nM; in the test with Aβtotal (setting [1]) it was greater than 3000 nM.
For the molecule `Cc1ncc(-c2ccc(Nc3nccn4cc(-c5ccc(F)cc5C)nc34)cc2)o1` [Compound 57], the IC50 in the test with Aβ42 (setting [3]) is 1070 nM; in the test with Aβtotal (setting [3]) it was greater than 10000 nM.
Consider `Cc1ncc(-c2ccc(Nc3cccn4cc(-c5ccccc5C)nc34)cc2)o1` [Compound 39], for which the IC50 with Aβ42 (setting [4]) is 53 nM; with Aβ42 (setting [3]), 51 nM; with Aβtotal (setting [4]) it was greater than 3000 nM; in the test with Aβtotal (setting [3]) it was greater than 3000 nM.
For `Cc1nc(C)c(-c2ccc(Nc3cccc4c3nc(-c3ccc(F)cc3)n4C)cc2)o1` [Compound 83], the IC50 in the test with Aβ42 (setting [3]) is 59 nM; in the test with Aβtotal (setting [3]) it was greater than 3000 nM.
In the case of `COc1cc(Nc2cc(C#N)cn3cc(-c4ccc(F)cc4C)nc23)ccc1-c1ocnc1C` [Compound 146], the IC50 with Aβ42 (setting [3]) is 355 nM; in the test on Aβtotal (setting [3]) it was greater than 30000 nM.
With `Cc1ncoc1-c1ccc(Nc2cc(F)cc3c2nc(-c2ccccc2Cl)n3C)cn1` [Compound 114], the results for the IC50 with Aβ42 (setting [3]) and in the test with Aβtotal (setting [3]) were 72 nM and greater than 3000 nM, respectively.
As for `COc1cc(Nc2cc(C(F)(F)F)cn3cc(C(=O)N(C)C)nc23)ccc1-c1ocnc1C` [Compound 143], the concentration for half-maximal inhibition (IC50) was 9770 nM with Aβ42 (setting [3]) and greater than 30000 nM in the test on Aβtotal (setting [3]).
On the same counts, the results for `COc1cc(Nc2cc(C)cn3cc(-c4ccc(F)cc4C)nc23)ccc1-c1ocnc1C` [Compound 149] are 47 nM and greater than 3000 nM.
The corresponding values for `Cn1cc(-c2ccc(Nc3cccc4c3nc(-c3ccc(F)cc3)n4C)cc2)cn1` [Compound 67] are 65 nM and greater than 3000 nM.
On the same counts, the results for `COc1cc(Nc2nc(C)cc3c2nc(-c2cccc(OC(C)C)c2)n3C)ccc1-c1cnc(C)o1` [Compound 102] are 24 nM and greater than 3000 nM.
As for `COc1cccc(-c2nc3c(Nc4ccc(-c5cnc(C)o5)nc4)cc(C#N)cc3n2C)c1` [Compound 103], the IC50 in the test on Aβ42 (setting [3]) was 36 nM; in the test with Aβtotal (setting [3]), greater than 3000 nM.
Regarding `COc1cc(Nc2cc(C)nc3c2nc(-c2ccc(F)cc2)n3C)ccc1-c1cnc(C)o1` [Compound 193], the figures for the IC50 with Aβ42 (setting [3]) and in the test on Aβtotal (setting [3]) were 19 nM and greater than 3000 nM, respectively.
On the same counts, the results for `Cc1ccc(C(F)(F)F)cc1-c1cn2cccc(Nc3ccc(-c4ocnc4C)nc3)c2n1` [Compound 51] are 72 nM and greater than 3000 nM.
On the same counts, the results for `COc1cccc(-c2nc3c(Nc4ccc(-c5ocnc5C)c(OC)c4)cc(C#N)cc3n2C)c1` [Compound 122] are 38 nM and greater than 3000 nM.
Consider `Cc1ncoc1-c1ccc(Nc2cccc3c2nc(-c2ccc(F)cc2)n3C(C)(C)C)cn1` [Compound 34], for which the 50% inhibitory concentration (IC50) in the test with Aβ42 (setting [4]) was 16 nM; with Aβ42 (setting [3]) it was 110 nM; with Aβtotal (setting [4]), greater than 3000 nM; with Aβtotal (setting [3]), greater than 3000 nM.
As to `COc1cc(Nc2nccc3c2nc(-c2ccc(F)cc2F)n3C)ccc1-c1cnc(C)s1` [Compound 78], the IC50 was 275 nM with Aβ42 (setting [3]) and greater than 3000 nM in the test with Aβtotal (setting [3]).
For `COc1cc(Nc2cc(CN)cn3cc(-c4ccc(F)cc4C)nc23)ccc1-c1ocnc1C` [Compound 150], the IC50 is 437 nM in the test on Aβ42 (setting [3]) and 8130 nM in the test with Aβtotal (setting [3]).
For the molecule `COc1cccc(-c2nc3c(Nc4ccc(-c5cnc(C)s5)c(OC)c4)cccn3c2C)c1` [Compound 4], the IC50 in the test on Aβ42 (setting [1]) is 63 nM; in the test on Aβ42 (setting [2]), 67 nM; with Aβtotal (setting [1]), greater than 3000 nM; in the test with Aβtotal (setting [2]), greater than 3000 nM.
Regarding `Cc1ncc(-c2ccc(Nc3nccc4c3nc(-c3ccc(F)cc3F)n4C)cc2)o1` [Compound 53], the IC50 with Aβ42 (setting [3]) is 1900 nM; in the test with Aβtotal (setting [3]), greater than 10000 nM.
The corresponding values for `Cc1nc2c(Nc3ccc(-c4cnc(C(C)C)o4)cc3)cccn2c1C` [Compound 180] are greater than 3000 nM and greater than 3000 nM.
The corresponding values for `Cc1ncoc1-c1ccc(Nc2cccn3cc(C4CCOCC4)nc23)cn1` [Compound 154] are 2040 nM and greater than 3000 nM.
With `Cc1ncc(-c2ccc(Nc3cncc4c3nc(-c3ccc(F)cc3)n4C)cn2)o1` [Compound 200], the values for the half-maximal inhibitory concentration (IC50) in the test with Aβ42 (setting [3]) and in the test with Aβtotal (setting [3]) were 295 nM and greater than 3000 nM, respectively.
For `Cc1ncoc1-c1ccc(Nc2nccc3c2nc(-c2ccccc2Cl)n3C)cn1` [Compound 117], the IC50 in the test with Aβ42 (setting [3]) was 724 nM; with Aβtotal (setting [3]), greater than 10000 nM.
As to `COc1cc(Nc2cccc3c2nc(-c2ccc(F)cc2)n3C)ccc1-c1oc(C)nc1C` [Compound 24], the IC50 in the test on Aβ42 (setting [4]) is 56 nM; in the test with Aβ42 (setting [3]), 55 nM; with Aβtotal (setting [4]), greater than 3000 nM; in the test on Aβtotal (setting [3]), greater than 3000 nM.
`Cc1ncc(-c2ccc(Nc3nccc4c3nc(-c3ccc(F)cc3)n4C)cc2)o1` [Compound 23]: the IC50 is 417 nM in the test with Aβ42 (setting [4]), 398 nM with Aβ42 (setting [3]), greater than 3000 nM with Aβtotal (setting [4]) and greater than 3000 nM in the test with Aβtotal (setting [3]).
Consider `COc1cccc(-c2nc3c(Nc4ccc(-c5ocnc5C)c(OC)c4)nc(C)cc3n2C)c1` [Compound 121], for which the IC50 was 20 nM in the test on Aβ42 (setting [3]) and greater than 3000 nM in the test with Aβtotal (setting [3]).
With `Cc1ncc(-c2ccc(Nc3cc(F)cn4cc(-c5ccc(F)cc5C)nc34)cc2)o1` [Compound 176], the figures for the IC50 in the test on Aβ42 (setting [3]) and in the test on Aβtotal (setting [3]) were 41 nM and greater than 3000 nM, respectively.
For the molecule `Cc1ncoc1-c1ccc(Nc2cccn3cc(C4CC4)nc23)cn1` [Compound 160], the IC50 was 138 nM in the test with Aβ42 (setting [3]) and greater than 3000 nM in the test on Aβtotal (setting [3]).
As to `COc1cccc(-c2nc3c(Nc4ccc(-c5sc(C)nc5C)c(OC)c4)cccn3c2C)c1` [Compound 5], the IC50 with Aβ42 (setting [1]) is 78 nM; in the test with Aβ42 (setting [2]), 63 nM; in the test on Aβtotal (setting [1]) it was greater than 3000 nM; in the test on Aβtotal (setting [2]), greater than 3000 nM.
